Data from patent US8586552B2, “4,6-substituted 2,5-dideoxystreptamine aminoglycoside antibiotics” (SelectX Pharmaceuticals, Inc., priority 2012, dated 2013).
In brackets after ≈: the same amount, converted by molar mass.

Tests used:
P. aeruginosa 6294 MLP-3 = experiment: Rat neutropenic thigh model; format: in vivo
Description: The compound identified as SXP 2523 was selected for further testing in vivo. Twenty male Sprague Dawley rats were pre-treated with cyclophosphamide to render them neutropenic on day −4 and day −1 with 100 mg/kg and 75 mg/kg respectively. Rats were infected with P. aeruginosa 6294 MLP-3, via injection into the right thigh muscle of 0.1 mL per rat. Two hours post infection rats were treated intravenously with either SXP-2523 or amikacin in a total dose of 10 or 60 mg/kg, respectively. The test article and control agent were delivered at 2, 4, and 6 hours post infection. Five rats were treated with each drug concentration. One group of five rats was euthanized at initiation of treatment and thigh CFUs were processed (T=Rx). Twenty-four hours post infection rats were euthanized by CO2 inhalation. The right thigh muscles of the rats were aseptically removed, weighed, homogenized, serially diluted, and plated on MacConkey medium. The plates were incubated overnight at 37° C. in 5% CO2. CFU per gram of thigh was calculated by enumerating the plated colonies then adjusting for serial dilutions and the weight of the thigh. The following table 7 summarizes the results Table 6: […]

[1] = tested on: Klebsiella pneumoniae KR1 (clinical isolate with intermediate aminoglycoside resistance); experiment: MIC against Klebsiella pneumoniae clinical isolate KR1; format: cell-based; details: Klebsiella pneumonia KR1; in µg/mL
Excerpt: Klebsiella pneumoniae (Kpn) and Escherichia coli (Eco) are gram-negative (like Pae), enteric pathogens with increasing clinical relevance. Many clinical isolates of Kpn and Eco harbor extended-spectrum beta-lactamases and are no longer sensitive to most beta-lactam antibiotics. We acquired clinical isolates of Klebsiella pneumoniae and Escherichia coli (Micromyx LLC, Kalamazoo, Mich.) and used this panel to test compounds for anti-enteric activity.

[2] = tested on: more than fifty resistant contemporary clinical isolates of Pseudomonas aeruginosa; experiment: MIC90 against panel of resistant clinical isolates of Pseudomonas aeruginosa; format: cell-based
Excerpt: To assess this, a panel of more than fifty resistant contemporary clinical isolates of Pseudomonas aeruginosa were obtained from multiple sources including JMI Laboratories (North Liberty, Iowa), Pfizer (Groton, Conn.), Micromyx (Kalamazoo, Mich.), Dr. J. Chow (Wayne State University). Strains were characterized for resistance to a wide variety of classes of antibiotics including aminoglycosides, β-lactams and fluoroquinolones. […] This reflects the difficulty in treating clinical Pseudomonas aeruginosa infections. […] Using this stringent panel, we tested a subset of compounds of the invention (Table 4).

[3] = tested on: Pseudomonas aeruginosa (Pae, PAWT, ATCC #27853); experiment: MIC against Pseudomonas aeruginosa reference strain PAWT; format: cell-based; details: Pseudomonas aeruginosa wild type PAWT
[4] = Log CFU/thigh, total dose 10 mg/kg SXP-2523 or 60 mg/kg amikacin iv

NCCCNCC1OC(OC2C(NC(=O)C(O)CCN)CC(N)C(OC3OC(CN)C(O)CC3N)C2F)C(O)C(N)C1O (stereo not shown) [SXP 2523]
Change from 24 hr. control (P. aeruginosa 6294 MLP-3; [4]): −0.71 | Change from T = Rx controls (P. aeruginosa 6294 MLP-3; [4]): 2.37 | Log CFU/thigh (P. aeruginosa 6294 MLP-3; neutropenic male Sprague Dawley rats, iv at 2, 4, 6 h post infection, total dose 10 mg/kg SXP-2523 or 60 mg/kg amikacin, 24 h post infection): 6.55 Log CFU/thigh | efficacy against P. aeruginosa in animal model (P. aeruginosa 6294 MLP-3; rat neutropenic thigh model, total dose 10 mg/kg iv): effective against P. aeruginosa | MIC KR1 [1]: 0.5-1 | MIC90 Pseudomonas aeruginosa [2]: 4 µg/mL (≈ 6.38 µM) | MIC PAWT [3]: 0.25 µg/mL (≈ 0.399 µM)
